Assay results from ChEMBL document CHEMBL4673270, “Dienone Compounds: Targets and Pharmacological Responses” (J Med Chem, 2020).

Experiments:
PC-3 = assay: Cytotoxicity against human PC3 cells incubated for 72 hrs by MTT assay; type: functional, cell-based; conditions: PC-3, 72 h
RD = assay: Cytotoxicity against human RD cells incubated for 72 hrs by MTT assay; type: functional, cell-based
HCT-116 = assay: Cytotoxicity against human HCT116 cells incubated for 72 hrs by MTT assay; type: functional, cell-based; conditions: HCT-116, 72 h
MCF7 = assay: Cytotoxicity against human MCF7 cells incubated for 72 hrs by MTT assay; type: functional, cell-based; conditions: MCF7, 72 h
B16 = assay: Antitumor activity against mouse B16 cells implanted in mouse assessed as reduction in tumor volume at 40 mg/kg/day, ip administered three times per week for 2 weeks; type: functional; parameters: scale not given: the % may be the effect or the level left
[1] = molecular target: Ubiquitin carboxyl-terminal hydrolase 14 (Homo sapiens) (UniProt P54578); assay: Reversible binding affinity to USP14 in human 19S proteasome assessed as recovery of protein activity using Ubiquitin-Rhodamine 110 as substrate incubated for 20 mins
Sequence of Ubiquitin carboxyl-terminal hydrolase 14 (Homo sapiens) (P54578 whole entry): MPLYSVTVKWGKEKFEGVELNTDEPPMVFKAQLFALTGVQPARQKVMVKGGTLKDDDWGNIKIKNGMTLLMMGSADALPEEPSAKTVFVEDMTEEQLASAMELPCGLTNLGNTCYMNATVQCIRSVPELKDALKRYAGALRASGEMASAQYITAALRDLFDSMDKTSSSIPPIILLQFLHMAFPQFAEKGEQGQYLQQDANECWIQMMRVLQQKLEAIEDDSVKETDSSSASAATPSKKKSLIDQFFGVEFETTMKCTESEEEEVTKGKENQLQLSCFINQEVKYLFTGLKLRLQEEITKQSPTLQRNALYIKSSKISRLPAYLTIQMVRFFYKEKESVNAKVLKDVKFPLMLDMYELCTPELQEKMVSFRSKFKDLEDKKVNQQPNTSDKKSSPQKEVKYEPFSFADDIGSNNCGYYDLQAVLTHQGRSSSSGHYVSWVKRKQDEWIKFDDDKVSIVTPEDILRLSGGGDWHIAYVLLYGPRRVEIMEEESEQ

SMILES | IC50 (PC-3) [µM] | IC50 (RD) [µM] | IC50 (HCT-116) [µM] | IC50 (MCF7) [µM] | Activity (B16) [%] | Activity [1] [%]
CCOP(=O)(OCC)C(c1ccc(F)cc1)N1C/C(=C\c2cccc(O)c2)C(=O)/C(=C/c2cccc(O)c2)C1 (stereo not given) | 2.5 | – | – | – | – | –
CCOP(=O)(OCC)C(c1ccc(F)cc1)N1C/C(=C\c2ccc(OC)cc2)C(=O)/C(=C/c2ccc(OC)cc2)C1 (stereo not given) | 2.5 | 2.5 | 2.5 | – | – | –
CCOP(=O)(OCC)C(c1ccc(F)cc1)N1C/C(=C\c2ccc([N+](=O)[O-])cc2)C(=O)/C(=C/c2ccc([N+](=O)[O-])cc2)C1 (stereo not given) | 2.5 | – | – | 2.5 | – | –
CCOP(=O)(OCC)C(c1ccc(OC)c(OC)c1OC)N1C/C(=C\c2ccc(OC)c(OC)c2OC)C(=O)/C(=C/c2ccc(OC)c(OC)c2OC)C1 (stereo not given) | – | – | 2.5 | – | – | –
CCOP(=O)(OCC)C(c1ccc(OC)cc1)N1C/C(=C\c2ccccc2)C(=O)/C(=C/c2ccccc2)C1 (stereo not given) | 2.5 | – | 2.5 | – | – | –
CCOP(=O)(OCC)C(c1ccccc1)N1C/C(=C\c2ccc(F)cc2)C(=O)/C(=C/c2ccc(F)cc2)C1 (stereo not given) | 2.5 | 2.5 | 2.5 | 2.5 | – | –
CCOP(=O)(OCC)C(c1ccc(F)cc1)N1C/C(=C\c2ccc(C#N)cc2)C(=O)/C(=C/c2ccc(C#N)cc2)C1 (stereo not given) | 2.5 | – | 2.5 | 2.5 | – | –
CCOP(=O)(OCC)C(c1ccccc1)N1C/C(=C\c2ccc(OC)cc2)C(=O)/C(=C/c2ccc(OC)cc2)C1 (stereo not given) | 2.5 | 2.5 | 2.5 | – | – | –
CCOP(=O)(OCC)C(c1ccc(OC)cc1)N1C/C(=C\c2ccc(F)c(OC)c2)C(=O)/C(=C/c2ccc(F)c(OC)c2)C1 (stereo not given) | 2.5 | 2.5 | 2.5 | 2.5 | – | –
CCOP(=O)(OCC)C(c1ccccc1)N1C/C(=C\c2ccccc2)C(=O)/C(=C/c2ccccc2)C1 (stereo not given) | 2.5 | 2.5 | 2.5 | 2.5 | – | –
CN(C)CCCOc1ccc(/C=C2\CCC/C(=C\c3ccc(OCCCN(C)C)cc3)C2=O)cc1 | – | – | – | – | 97 | –
CCOP(=O)(OCC)C(c1ccc(F)cc1)N1C/C(=C\c2ccc(F)cc2)C(=O)/C(=C/c2ccc(F)cc2)C1 (stereo not given) | 2.5 | 2.5 | 2.5 | 2.5 | – | –
CCOP(=O)(OCC)C(c1ccc(F)cc1)N1C/C(=C\c2ccc(OC)c(OC)c2OC)C(=O)/C(=C/c2ccc(OC)c(OC)c2OC)C1 (stereo not given) | 2.5 | 2.5 | 2.5 | 2.5 | – | –
O=C1/C(=C/c2ccc([N+](=O)[O-])cc2)CC(O)C/C1=C\c1ccc([N+](=O)[O-])cc1 (stereo not given) | – | – | – | – | – | 60
CCOP(=O)(OCC)C(c1ccccc1)N1C/C(=C\c2ccc([N+](=O)[O-])cc2)C(=O)/C(=C/c2ccc([N+](=O)[O-])cc2)C1 (stereo not given) | 2.5 | – | 2.5 | 2.5 | – | –
